Assay results published in patent US20220000976A1 (priority 2018, published 2022).
Where a name gives a salt, the structure may show the parent alone.

Key:
[1] = system: ROR-γt+ Treg cells; conditions: mouse, in vivo
[2] = system: Il4ra^F709 mice; assay: Food allergy model: OVA/SEB oral sensitization and OVA challenge of treated Il4ra^F709 mice (core body temperature); type: in vivo, mouse; conditions: 100 mg/kg i.p. once weekly, OVA/SEB 8 weeks

SMILES	ROR-γt+ staining in CD4+Foxp3+ Treg cells vs sham treatment [1]	GATA3+ Helios+ gut Treg cells ([1]; ip, 100 mg/kg)	GATA3+ Helios− gut Treg cells ([1]; ip, 100 mg/kg)	GATA3+ gut Treg cells ([1]; ip, 100 mg/kg)	Gut ROR-γt+ Treg cells (expansion) ([1]; ip, 100 mg/kg)	ROR-γt+ Helios+ gut Treg cells ([1]; ip, 100 mg/kg)	ROR-γt+ Helios− gut Treg cells ([1]; ip, 100 mg/kg)	ROR-γt+ gut Treg cells ([1]; ip, 100 mg/kg)	Protection against food allergy ([2]; OVA challenge)	Core body temperature changes compared to control ([2]; after OVA challenge)
O=Cc1c[nH]c2ccccc12 [CA, indol-3-carboxaldehyde]	statistically significant increase	–	–	–	–	–	–	–	–	–
O=S(=O)(O)Oc1c[nH]c2ccccc12 [I3S, Indoxyl sulfate]	–	statistically significant decrease	statistically significant decrease	statistically significant decrease	expanded gut ROR-γt^+ Treg cells	statistically significant increase	statistically significant increase	statistically significant increase	protected against food allergy	statistically significant increase
